# Columns and labels:
# [1] = tested on: elderly AT-MSCs; assay: Intracellular ROS level (H2-DCFDA fluorescence) in AT-MSCs; format: cell-based, human; details: 20 μM Eda; for ROS levels in elderly AT-MSCs after 24 hours of culture with agent: 1 mM NAC, 2 μM AA
# Experimental: The expression of ROS in infant- and elderly-derived ATMSCs was evaluated. The intracellular ROS level was measured using 2′,7′-dichlorodihydrofluorescein diacetate (H2-DCFDA, Invitrogen) according to the manufacturer's instructions. Briefly, after reaching 80% confluence, the ATMSCs were washed with PBS and incubated with PBS containing 10 μM H2-DCFDA at 37° C. for 30 minutes. The fluorescence intensity was analyzed by absorbance at 495 nm and 525 nm wavelengths using a photoemission spectrophotometer (Corona Electric, Japan).
# (§1) While not wishing to be bound by theory, the oxidative stress and resulting accumulation of ROS are believed to relate to the impaired function of elderly AT-MSCs. The effects of anti-oxidative agents on elderly AT-MSCs were tested and the expression of ROS in elderly AT-MSCs were measured following culture in the presence of 20 μM Edaravone (Eda), 1 mM N-acetylcysteine (NAC), or 2 μM Ascorbic Acid (AA), respectively. […] The concentration of Eda, NAC and AA was maintained in the culture media throughout the culture period. The effects of anti-oxidative agents on cell senescence were also investigated. Cell senescence was assessed by measuring the activity of senescence associated (SA) β-galactosidase following 6 or 12 passages of culture in the presence of 20 μM Eda, 1 mM NAC, or 2 μM AA. […] In FIGS. 3A, 3B and 3C, *=P<0.05, **=P<0.01, and ns=not significant.
# [2] = tested on: streptozotocin-induced diabetic mouse punch biopsy model; assay: Mouse punch biopsy wound healing model (streptozotocin-induced diabetic mice); format: in vivo; details: elderly AT-MSCs cultured 24 hours with 20 μM Eda, 1 mM NAC or 2 μM AA
# Experimental: The effect of the anti-oxidative agents Eda, NAC and AA on the wound healing ability of elderly AT-MSCs was investigated using the mouse punch biopsy model, as described in Dunn et al., J Vis Exp. (75): 50265, 2013). Briefly, 7-week-old male C57BL/6 mice were anesthetized using avertin and shaved. Two wounds were established using 5 mm biopsy punch in the mice upper dorsal area. MSCs (5×10^5 cells/wound) or EVs (4 μg/wound) were injected at 4 points surrounding the punch area. Each mouse had two punched wounds, (1) PBS and (2) cells or EV-treatment. A splint was stitched to the surrounding wound areas and covered with Tegaderm (3M, USA), and the wound sites were observed every day. The images of the wound areas were captured, and the necrotic areas were analyzed using Image J software (NIH, MD).
# [3] = tested on: elderly AT-MSCs; assay: Cell senescence, senescence associated (SA) β-galactosidase activity; format: cell-based, human; details: 6 or 12 passages of culture with 20 μM Eda
# Experimental: as §1
Structure (SMILES),ROS levels in elderly AT-MSCs after 24 hours of culture with agent [1],Wound healing ability of elderly AT-MSCs cultured with the agent [2],ROS reducing effect in elderly AT-MSCs following 1 cell passage ([1]; 1 cell passage),(SA) β-galactosidase activity (cell senescence) [3]
"O=C1O[C@H]([C@@H](O)CO)C(O)=C1O [AA, Ascorbic Acid]",reduced ROS levels,no effect,,
"CC1=NN(c2ccccc2)C(=O)C1 [Eda, Edaravone]",reduced ROS levels,significantly improved wound healing,ROS reducing effects of Eda were evident,reduced (SA) β-galactosidase activity
"CC(=O)N[C@@H](CS)C(=O)O [NAC, N-acetylcysteine]",reduced ROS levels,no effect,,
